Columns and labels:
[1] = Caco-2 bidirectional permeability and efflux ratio; type: in vitro ADME; conditions: human, Caco-2, 10 µM, 120 minutes
Description: (§1) The bidirectional permeability and efflux ratio of the example compounds and control compound were determined in a Caco-2 monolayer cell model.
(§2) Caco-2 cells (cultured at Shanghai Medicilon Inc.) were recovered in the experiment. After the cells were in good condition, they were digested, and the cell density was adjusted (1 × 10^5 cells/cm^2). Caco-2 cells were seeded into Transwell chambers and placed in 24-well plates for cultivation. After continuous cultivation for about 21 days, TEER values were measured one day before the experiment to ensure formation of a confluent cell monolayer for transport experiments (TEER > 200 Ω·cm^2). Test compounds were diluted from 10 mM stock solutions to 10 µM concentration using transport buffer (HBSS containing BSA) (metoprolol and atenolol were set as positive compounds). For efflux determination, 0.6 mL of compound dilution solution was added to the outer well (side B), and 0.4 mL of blank transport buffer was added to the Transwell chamber. For absorption determination, 0.4 mL of transport buffer containing compound was added to the Transwell chamber, and 0.6 mL of blank transport buffer was added to the outer side. After setup, the 24-well plates were cultivated at 37 °C and 5% CO2 with 95% relative humidity for 120 minutes, and permeability of test compounds from A to B direction or B to A direction was measured, respectively, with two duplicate wells set for each direction. Liquid in Transwell chambers and 24-well plates was collected separately, 60 µL each, and 180 µL of acetonitrile (containing internal standard) was added, vortexed for 1 min, then centrifuged at 4 °C, 10000 rpm for 10 min. The supernatant was taken, filtered through a 0.22 µm membrane, and placed in vials for testing. The content of the compounds in each Transwell chamber and 24-well plate was determined by liquid chromatography-tandem mass spectrometry (LC-MS/MS). Table 4 Permeability data of compounds of the present disclosure

[2] = system: Caco-2 monolayer cell model; experiment: Caco-2 bidirectional permeability and efflux ratio; type: in vitro ADME; conditions: Caco-2, conclusion
Description: as §1, §2

[3] = Metabolic stability in human liver microsomes; type: in vitro ADME; conditions: human liver microsomes 0.5 mg mL^-1, NADPH 1 mM, 0-60 min; read-out: Liver microsomal stability t1/2 (min) Human
Description: (§3) The purpose of this study was to investigate the metabolic stability of the compounds of the present disclosure in human and dog liver microsomes.
(§4) The compounds were co-incubated with human (or dog) liver microsomes, and the reaction was initiated by adding coenzyme NADPH (1 mM). At 0, 5, 15, 30, and 60 minutes, 60 µL of incubation solution was removed, and 180 µL of acetonitrile containing internal standard (clopidogrel) was added to quench the reaction, the mixture was shaken for 10 seconds, centrifuged at 10000 rpm for 10 minutes, and the supernatant was taken for analysis by LC-MS/MS. The in vitro intrinsic clearance was calculated based on the elimination half-life of the test compound in the incubation system. Midazolam was used as an internal reference compound, with two parallel incubations for each. Incubation conditions are summarized in Table 6 below: Table 6 Incubation conditions for the example compounds of the present disclosure
(§5) The ratio of the peak area of analyte to internal standard (Aanalyte/AIS) was obtained from the instrument, and the remaining percentage (%Control) was calculated from the ratio of Aanalyte/AIS in non-zero time point samples to zero time samples. Ln (%Control) was plotted against incubation time and linearly fitted. The test compound clearance constant (k, min^-1) and clearance half-life (T1/2, min) were calculated using the following equations. k = −slope [formula] T1/2 = 0.693/k. [formula]

[4] = Metabolic stability in dog liver microsomes; type: in vitro ADME; conditions: dog liver microsomes 0.5 mg mL^-1, NADPH 1 mM, 0-60 min; read-out: Liver microsomal stability t1/2 (min) Dog
Description: as §3, §4, §5

[5] = Pharmacokinetic test in mice after intragastric administration; type: in vivo; conditions: male, mouse, plasma, ICR mice, Oral (10 mg/kg); for AUC(0-t): read-out: Area under curve AUC0-t; for half-life: read-out: Half-life T1/2 (converted); for Cmax: read-out: Plasma concentration Cmax
Description: ICR mice were used as test animals, the plasma concentrations of the control compound HRO761 and the compounds of the present disclosure at different time points after intragastric administration were determined by LC/MS/MS method, and the pharmacokinetic characteristics of the compounds of the present disclosure in mice were studied.
ICR mice, male, 30.8 to 38.0 g, purchased from Vital River Laboratory Animal Technology Co., Ltd.
An appropriate amount of the test compound was weighed, and an appropriate amount of DMA (N,N-dimethylacetamide), 30% Solutol HS15 (30% polyethylene glycol-15 hydroxystearate), and Saline (saline) were added sequentially, the mixture was ultrasonicated and vortex mixed to prepare a 1 mg/mL dosing formulation. The ratio of DMA:30% Solutol HS15:Saline was 5:5:90 (v/v/v).
After overnight fasting, ICR mice in each test compound injection group (9 mice per group) were administered intragastrically (PO, compound dose was 10 mg/kg, administration volume was 10 mL/kg), and food was given 4 hours after administration.
About 0.1 mL of blood was collected via the orbital cavity before administration and at 0.25 h, 0.5 h, 1 h, 2 h, 4 h, 8 h, 10 h, and 24 h after administration, and whole blood samples were placed in anticoagulant tubes containing EDTA-K2. The samples were placed on ice after collection, and plasma was separated by centrifugation (centrifugation conditions: 1500 g, 10 minutes). The collected plasma was stored at -40 to -20 °C before analysis.
The content of the test compound in mouse plasma after intragastric administration was determined by LC-MS/MS.

recombinant human WRN = molecular target: T1, recombinant human WRN (Homo sapiens, UniProt Q14191); experiment: Inhibition of WRN enzyme activity (ATPase), ADP-Glo Kinase Assay; type: biochemical; conditions: WRN protein 5 nM, Flap 0.1 nM, ATP 30 µM; read-out: IC50
T1 construct: purchased BPS 101264
T1 sequence (Q14191 whole entry): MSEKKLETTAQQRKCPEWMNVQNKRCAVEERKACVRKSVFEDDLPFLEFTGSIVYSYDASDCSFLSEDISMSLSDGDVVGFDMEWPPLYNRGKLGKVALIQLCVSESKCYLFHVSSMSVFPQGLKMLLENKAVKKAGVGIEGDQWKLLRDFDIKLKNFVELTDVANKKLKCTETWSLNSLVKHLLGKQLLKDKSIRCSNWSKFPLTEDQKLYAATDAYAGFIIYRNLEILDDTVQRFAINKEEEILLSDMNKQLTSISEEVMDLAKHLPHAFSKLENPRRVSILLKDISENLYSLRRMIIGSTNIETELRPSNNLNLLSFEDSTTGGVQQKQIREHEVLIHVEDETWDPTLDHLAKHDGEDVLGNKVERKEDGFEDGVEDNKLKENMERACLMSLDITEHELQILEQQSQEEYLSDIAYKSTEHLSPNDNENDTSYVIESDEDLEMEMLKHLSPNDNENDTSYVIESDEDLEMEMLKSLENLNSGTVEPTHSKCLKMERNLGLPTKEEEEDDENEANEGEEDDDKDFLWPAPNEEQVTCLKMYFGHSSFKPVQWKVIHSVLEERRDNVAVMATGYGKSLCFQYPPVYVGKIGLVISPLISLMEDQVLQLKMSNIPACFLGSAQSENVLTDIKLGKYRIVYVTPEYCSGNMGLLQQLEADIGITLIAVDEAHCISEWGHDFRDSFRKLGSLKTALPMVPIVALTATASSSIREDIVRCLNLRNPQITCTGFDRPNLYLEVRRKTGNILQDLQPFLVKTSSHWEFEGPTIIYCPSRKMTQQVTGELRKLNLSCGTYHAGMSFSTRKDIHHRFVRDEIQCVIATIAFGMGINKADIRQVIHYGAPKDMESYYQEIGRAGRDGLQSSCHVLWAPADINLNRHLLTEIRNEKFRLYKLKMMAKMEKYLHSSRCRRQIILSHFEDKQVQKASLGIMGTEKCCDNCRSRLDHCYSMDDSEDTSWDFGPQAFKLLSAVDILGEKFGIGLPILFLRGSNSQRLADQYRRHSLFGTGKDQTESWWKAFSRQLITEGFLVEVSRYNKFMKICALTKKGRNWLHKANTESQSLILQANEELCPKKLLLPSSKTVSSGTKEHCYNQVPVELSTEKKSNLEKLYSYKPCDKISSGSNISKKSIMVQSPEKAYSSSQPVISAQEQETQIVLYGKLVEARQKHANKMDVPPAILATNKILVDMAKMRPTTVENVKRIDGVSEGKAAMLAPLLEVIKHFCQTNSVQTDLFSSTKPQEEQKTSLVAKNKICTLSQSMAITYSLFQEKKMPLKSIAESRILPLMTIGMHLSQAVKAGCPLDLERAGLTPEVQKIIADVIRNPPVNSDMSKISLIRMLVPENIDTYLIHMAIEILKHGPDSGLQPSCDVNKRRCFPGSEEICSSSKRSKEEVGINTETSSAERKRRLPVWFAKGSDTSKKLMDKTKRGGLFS
Procedure, shortened: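 Recombinant human WRN (5 nM) was preincubated with compound (1000–0.004 nM) for 15 min at room temperature. Flap26 5'-flap DNA (0.1 nM) and 30 µM ATP were then added for 10 min in Tris pH 7.5, MgCl2, NaCl, BSA, Pluronic buffer. ADP was detected by ADP-Glo luminescence, and IC50 was obtained by nonlinear regression versus a 0.1% DMSO control.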

RL95-2 cells = experiment: Inhibition of RL95-2 cell proliferation (CellTiter-Glo); type: cell-based; conditions: Homo sapiens; RL95-2 cells (MSI-H), 120 hours
Procedure, shortened: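 RL95-2 (MSI-H) cells, 500/well in DMEM/F12 with 10% FBS, adhered overnight, then treated 120 h at 37 °C, 5% CO2 with compound at final 1.52-10000 nM. Viability by CellTiter-Glo luminescence. Inhibition relative to 0.1% DMSO control; IC50 from nonlinear regression of log concentration versus inhibition.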

SW48 cells = experiment: Inhibition of SW48 cell proliferation (CellTiter-Glo); type: cell-based; conditions: Homo sapiens; SW48 cells (MSI-H), 120 hours
Procedure, shortened: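 SW48 (MSI-H) cells in L-15 with 10% FBS were seeded at 500 per well, cultured overnight at 37 °C, then exposed to compound at final concentrations of 10000 nM to 1.52 nM for 120 h. Viability was read by CellTiter-Glo luminescence, with inhibition relative to 0.1% DMSO. IC50 from nonlinear regression of log concentration versus inhibition.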

SMILES | efflux ratio at 120 min, 10 µM ([1]; read-out: Efflux ratio Papp(B-A)/ Papp(A-B)) | Papp A→B at 120 min, 10 µM ([1]; A to B) | Papp B→A at 120 min, 10 µM ([1]; B to A) | efflux (in words) [2] | permeability (in words) [2] | half-life [3] | half-life [4] | AUC(0-t) [5] | half-life [5] | Cmax [5] | IC50 (recombinant human WRN) | IC50 (RL95-2 cells) | IC50 (SW48 cells)
CCc1c(N2CCN(C(=O)c3ncnc(C)c3O)CC2)c(=O)n2nc(C3=CCOCC3)nc2n1CC(=O)Nc1ccc(C(F)(F)F)cc1Cl [HRO761, reference compound] | 3.65 | 3.96 ×10⁻⁶ cm/s | 14.5 ×10⁻⁶ cm/s | apparent potential efflux properties | moderate permeability | 483 min | 175 min | 15600 ng·h/mL | 2.81 h | 7010 ng/mL |  |  | 
CCc1c(N2CCN(C(=O)c3ncnc(C)c3O)CC2)c(=O)n2nc(-c3ccc4occc4c3)nc2n1CC(=O)Nc1ccc(C(F)(F)F)cc1Cl [Example 67, 2-(2-(benzofuran-5-yl)-5-ethyl-6-(4-(5-hydroxy-6-methylpyrimidine-4-carbonyl)piperazin-1-yl)-7-oxo-[1,2,4]triazolo[1,5-a]pyrimidin-4(7H)-yl)-N-(2-chloro-4-(trifluoromethyl)phenyl)acetamide] |  |  |  |  |  | 657 min | 318 min | 83400 ng·h/mL | 0.66 h | 31400 ng/mL | < 1 nM | 1 to 100 nM | 
CCc1c(N2CCN(C(=O)c3ncnc(C)c3O)CC2)c(=O)n2nc(-c3ccc4ncsc4c3)nc2n1CC(=O)Nc1ccc(C(F)(F)F)cc1Cl [Example 125, 2-(2-(benzo[d]thiazol-6-yl)-5-ethyl-6-(4-(5-hydroxy-6-methylpyrimidine-4-carbonyl)piperazin-1-yl)-7-oxo-[1,2,4]triazolo[1,5-a]pyrimidin-4(7H)-yl)-N-(2-chloro-4-(trifluoromethyl)phenyl)acetamide] |  |  |  |  |  | 705 min | 182 min |  |  |  | < 1 nM | 1 to 100 nM | 1 to 100 nM

From patent publication EP4800015A1, “AZABICYCLO DERIVATIVE AND PREPARATION METHOD THEREFOR, AND USE” (Zhejiang Hisun Pharmaceutical Co., Ltd., priority 2023, dated 2025)
